Values after ≈ are worked out from the molar mass of the structure shown.
What was measured:
Streptococcus pneumoniae [1] = test: Antibacterial activity against wild type Streptococcus pneumoniae in presence of 2.5% lysed horse blood; assay type: functional
DNA gyrase [2] = molecular target: DNA gyrase (Staphylococcus aureus, UniProt P0A0K8+P20831); test: Inhibition of Staphylococcus aureus DNA gyrase supercoiling activity; assay type: protein-complex assay
Escherichia coli [3] = test: Antibacterial activity against wild type Escherichia coli; assay type: functional
Pseudomonas aeruginosa [4] = test: Antibacterial activity against wild type Pseudomonas aeruginosa; assay type: functional
Staphylococcus aureus [5] = test: Antibacterial activity against wild type Staphylococcus aureus; assay type: functional
DNA gyrase [6] = molecular target: DNA gyrase (Escherichia coli, UniProt P0AES4+P0AES6); test: Inhibition of Escherichia coli DNA gyrase supercoiling activity; assay type: protein-complex assay
[7] = Inhibition of Escherichia coli DNA topoisomerase 4 decatenation activity
Topoisomerase IV = Topoisomerase IV (Staphylococcus aureus, UniProt P0C1S7+P0C1U9); test: Inhibition of Staphylococcus aureus DNA topoisomerase 4 decatenation activity; assay type: protein-complex assay
Chain of Topoisomerase IV (P0C1U9 whole entry): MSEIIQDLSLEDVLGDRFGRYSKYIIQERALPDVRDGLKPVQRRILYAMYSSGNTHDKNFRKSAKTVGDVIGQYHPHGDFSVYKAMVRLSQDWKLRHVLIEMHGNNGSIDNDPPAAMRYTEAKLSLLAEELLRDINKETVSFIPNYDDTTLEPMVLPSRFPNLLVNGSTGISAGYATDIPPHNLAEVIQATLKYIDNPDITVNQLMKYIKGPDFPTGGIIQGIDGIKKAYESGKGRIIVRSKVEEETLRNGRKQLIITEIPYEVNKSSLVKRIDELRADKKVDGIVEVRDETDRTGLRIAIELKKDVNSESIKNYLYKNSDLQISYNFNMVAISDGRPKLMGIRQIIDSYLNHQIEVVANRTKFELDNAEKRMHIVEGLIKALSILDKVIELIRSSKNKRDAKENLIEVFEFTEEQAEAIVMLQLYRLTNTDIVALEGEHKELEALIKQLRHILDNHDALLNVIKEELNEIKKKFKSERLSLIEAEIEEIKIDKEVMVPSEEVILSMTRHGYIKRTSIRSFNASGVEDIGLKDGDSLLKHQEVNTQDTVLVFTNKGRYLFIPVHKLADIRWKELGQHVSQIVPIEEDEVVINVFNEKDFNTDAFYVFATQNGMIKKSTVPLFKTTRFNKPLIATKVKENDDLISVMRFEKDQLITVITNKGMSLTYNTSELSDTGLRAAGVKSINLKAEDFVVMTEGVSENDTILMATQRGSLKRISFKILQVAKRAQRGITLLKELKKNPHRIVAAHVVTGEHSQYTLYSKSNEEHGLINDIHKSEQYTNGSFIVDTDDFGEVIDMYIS
Chain of Topoisomerase IV (P0C1S7 whole entry): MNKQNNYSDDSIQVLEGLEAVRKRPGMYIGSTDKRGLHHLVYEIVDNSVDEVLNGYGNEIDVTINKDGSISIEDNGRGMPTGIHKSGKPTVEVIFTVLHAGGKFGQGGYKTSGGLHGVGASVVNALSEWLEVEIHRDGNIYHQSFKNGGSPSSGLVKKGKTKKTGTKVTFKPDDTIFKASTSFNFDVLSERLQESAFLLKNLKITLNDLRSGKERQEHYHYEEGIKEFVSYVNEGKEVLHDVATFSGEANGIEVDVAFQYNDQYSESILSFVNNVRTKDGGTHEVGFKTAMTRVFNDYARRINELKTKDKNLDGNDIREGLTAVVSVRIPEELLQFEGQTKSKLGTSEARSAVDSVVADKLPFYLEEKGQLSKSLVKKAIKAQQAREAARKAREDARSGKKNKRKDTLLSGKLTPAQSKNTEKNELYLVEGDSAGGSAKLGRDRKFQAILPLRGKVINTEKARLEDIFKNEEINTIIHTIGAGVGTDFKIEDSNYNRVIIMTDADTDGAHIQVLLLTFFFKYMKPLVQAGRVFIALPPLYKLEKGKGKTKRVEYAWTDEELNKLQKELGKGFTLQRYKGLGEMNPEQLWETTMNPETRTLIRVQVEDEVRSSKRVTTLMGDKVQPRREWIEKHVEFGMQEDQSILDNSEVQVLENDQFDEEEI

Moraxella catarrhalis = test: Antibacterial activity against wild type Moraxella catarrhalis incubated for 20 hrs by two-fold serial dilution method; assay type: functional
Staphylococcus aureus [8] = test: Antibacterial activity against methicillin-resistant Staphylococcus aureus incubated for 20 hrs by two-fold serial dilution method; assay type: functional
Haemophilus influenzae = test: Antibacterial activity against wild type Haemophilus influenzae incubated for 20 hrs by two-fold serial dilution method; assay type: functional
Escherichia coli [9] = test: Antibacterial activity against wild type Escherichia coli incubated for 20 hrs by two-fold serial dilution method; assay type: functional
Staphylococcus aureus [10] = test: Antibacterial activity against wild type Staphylococcus aureus incubated for 20 hrs by two-fold serial dilution method; assay type: functional
Streptococcus pneumoniae [11] = test: Antibacterial activity against wild type Streptococcus pneumoniae incubated for 20 hrs in presence of 2.5% lysed horse blood by two-fold serial dilution method; assay type: functional
Staphylococcus aureus [12] = test: Antibacterial activity against wild type Staphylococcus aureus incubated for 20 hrs in presence of 50% of human serum by two-fold serial dilution method; assay type: functional
[13] = Inhibition of Escherichia coli DNA topoisomerase 4 ATPase activity
Enterococcus faecalis = test: Antibacterial activity against wild type Enterococcus faecalis incubated for 20 hrs by two-fold serial dilution method; assay type: functional
Pseudomonas aeruginosa [14] = test: Antibacterial activity against wild type Pseudomonas aeruginosa incubated for 20 hrs by two-fold serial dilution method; assay type: functional
Acinetobacter baumannii = test: Antibacterial activity against wild type Acinetobacter baumannii incubated for 20 hrs by two-fold serial dilution method; assay type: functional
Enterococcus faecium = test: Antibacterial activity against vancomycin-resistant Enterococcus faecium incubated for 20 hrs by two-fold serial dilution method; assay type: functional

Chain of DNA gyrase (Staphylococcus aureus, UniProt P0A0K8+P20831) (P0A0K8 whole entry): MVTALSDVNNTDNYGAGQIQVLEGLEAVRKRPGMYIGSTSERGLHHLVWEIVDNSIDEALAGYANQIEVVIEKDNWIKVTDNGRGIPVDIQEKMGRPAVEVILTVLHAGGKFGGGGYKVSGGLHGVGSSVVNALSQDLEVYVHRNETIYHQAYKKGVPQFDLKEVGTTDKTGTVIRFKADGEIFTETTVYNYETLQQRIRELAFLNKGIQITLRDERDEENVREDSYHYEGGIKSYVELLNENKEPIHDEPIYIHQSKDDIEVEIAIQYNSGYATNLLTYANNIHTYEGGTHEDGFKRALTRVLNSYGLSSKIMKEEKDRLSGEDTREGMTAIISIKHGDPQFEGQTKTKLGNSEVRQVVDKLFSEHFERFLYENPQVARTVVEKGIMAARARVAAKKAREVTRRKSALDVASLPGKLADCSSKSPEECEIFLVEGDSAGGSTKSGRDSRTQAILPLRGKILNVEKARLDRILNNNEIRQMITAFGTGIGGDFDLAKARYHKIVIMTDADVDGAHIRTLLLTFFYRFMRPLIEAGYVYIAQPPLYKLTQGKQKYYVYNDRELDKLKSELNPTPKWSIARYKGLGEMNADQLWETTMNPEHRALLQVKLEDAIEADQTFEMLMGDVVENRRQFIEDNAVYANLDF
Chain of DNA gyrase (Staphylococcus aureus, UniProt P0A0K8+P20831) (P20831 whole entry): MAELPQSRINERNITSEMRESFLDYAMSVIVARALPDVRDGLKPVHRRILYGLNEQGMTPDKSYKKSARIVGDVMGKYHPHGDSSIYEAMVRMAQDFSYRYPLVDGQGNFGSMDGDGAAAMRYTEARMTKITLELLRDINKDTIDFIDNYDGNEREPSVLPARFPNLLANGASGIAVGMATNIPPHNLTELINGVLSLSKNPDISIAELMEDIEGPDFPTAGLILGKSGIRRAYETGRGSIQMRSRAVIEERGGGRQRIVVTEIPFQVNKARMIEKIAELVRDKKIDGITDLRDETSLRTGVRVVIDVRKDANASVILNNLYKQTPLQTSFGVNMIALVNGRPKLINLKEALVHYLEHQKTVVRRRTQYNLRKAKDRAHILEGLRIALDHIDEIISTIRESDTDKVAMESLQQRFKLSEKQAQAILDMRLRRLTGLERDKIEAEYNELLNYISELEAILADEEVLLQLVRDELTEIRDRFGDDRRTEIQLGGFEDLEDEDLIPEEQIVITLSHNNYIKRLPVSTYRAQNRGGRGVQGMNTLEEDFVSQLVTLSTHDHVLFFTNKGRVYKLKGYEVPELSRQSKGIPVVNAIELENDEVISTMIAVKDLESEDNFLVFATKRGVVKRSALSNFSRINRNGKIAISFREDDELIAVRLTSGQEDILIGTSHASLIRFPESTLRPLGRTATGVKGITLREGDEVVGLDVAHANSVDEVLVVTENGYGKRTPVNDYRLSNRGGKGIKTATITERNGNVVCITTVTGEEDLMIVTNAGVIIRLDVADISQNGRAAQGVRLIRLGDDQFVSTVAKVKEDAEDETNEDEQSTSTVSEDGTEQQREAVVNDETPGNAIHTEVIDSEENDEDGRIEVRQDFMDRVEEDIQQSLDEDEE

Compound	MIC (Streptococcus pneumoniae [1])	IC50 (DNA gyrase [2])	MIC (Escherichia coli [3])	MIC (Pseudomonas aeruginosa [4])	MIC (Staphylococcus aureus [5])	IC50 (DNA gyrase [6])	IC50 [7]	IC50 (Topoisomerase IV)	MIC (Moraxella catarrhalis)	MIC (Staphylococcus aureus [8])	MIC (Haemophilus influenzae)	MIC (Escherichia coli [9])	MIC (Staphylococcus aureus [10])	MIC (Streptococcus pneumoniae [11])	MIC (Staphylococcus aureus [12])	IC50 [13]	MIC (Enterococcus faecalis)	MIC (Pseudomonas aeruginosa [14])	MIC (Acinetobacter baumannii)	MIC (Enterococcus faecium)
CO[C@@H]1[C@@H](OC(=O)c2ccc(C)[nH]2)[C@@H](O)[C@H](Oc2ccc3c(O)c(NC(=O)c4c[nH]c(C(=O)Nc5c(O)c6ccc(O[C@@H]7OC(C)(C)[C@H](OC)[C@@H](OC(=O)c8ccc(C)[nH]8)[C@H]7O)c(C)c6oc5=O)c4C)c(=O)oc3c2C)OC1(C)C	0.78 µg/mL	0.006 µM	6.25 µg/mL (≈ 5.63 µM)	12.5 µg/mL (≈ 11.3 µM)	0.0012 µg/mL (≈ 0.00108 µM)	0.03 µM	5 µM	100 µM												
CO[C@@H]1[C@@H](OC(N)=O)[C@@H](O)[C@H](Oc2ccc3c(O)c(NC(=O)c4ccc(O)c(CC=C(C)C)c4)c(=O)oc3c2C)OC1(C)C [NOVOBIOCIN]							10 µM	35 µM	> 32 µg/mL	0.06 µg/mL (≈ 0.0979 µM)	0.12 µg/mL (≈ 0.196 µM)	> 32 µg/mL	0.25 µg/mL (≈ 0.408 µM)	1 µg/mL	16 µg/mL	0.45 µM	32 µg/mL (≈ 52.2 µM)	100 µg/mL (≈ 163 µM)		
CO[C@@H]1[C@@H](OC(=O)c2ccc(C)[nH]2)[C@@H](O)[C@H](Oc2ccc3c(O)c(NC(=O)c4ccc(O)c(CC=C(C)C)c4)c(=O)oc3c2Cl)OC1(C)C [CHLOROBIOCIN]	2 µg/mL				< 0.06 µg/mL		3 µM	10 µM												
C[C@H]1COc2c(N3CCN(C)CC3)c(F)cc3c(=O)c(C(=O)O)cn1c23.C[C@H]1COc2c(N3CCN(C)CC3)c(F)cc3c(=O)c(C(=O)O)cn1c23.O [LEVOFLOXACIN]									1 µg/mL	32 µg/mL	< 0.015 µg/mL	0.031 µg/mL	0.125 µg/mL					0.5 µg/mL	0.125 µg/mL	4 µg/mL
Cc1c(O)cc(O)c2c1C(=O)OC[C@H](NC(=O)[C@@H]1[C@H](O)CCN1C(=O)[C@@H](N)CO)C(=O)N[C@H](C(=O)N[C@@H](C)C(=O)O)CSC2			> 128 µg/mL		> 128 µg/mL	0.05 µM														

— ChEMBL document CHEMBL5252521, “Discovery and development of kibdelomycin, a new class of broad-spectrum antibiotics targeting the clinically proven bacterial type II topoisomerase” (Bioorg Med Chem, 2016)
